Assay results: ChEMBL document CHEMBL5506044, “Ligandability Assessment of IL-1β by Integrated Hit Identification Approaches” (J Med Chem, 2024)
Bridge positions count the residues as written; N and C are the ends. Peptide text beside a SMILES is read from it.

Assays:
[1] = biological target: T1, Interleukin-1 beta (Homo sapiens, UniProt P01584)
[2] = biological target: T1, Interleukin-1 beta; remark: listed apart in the source
Description: Antagonist activity at human IL-1 beta assessed as inhibition of interaction of IL-1 beta/IL-1R1 expressed in NHDF cells by measuring reduction in IL-6 production preincubated with IL-1 beta for 1 hr followed by incubation with cells and measured after 6 hrs by ELISA

[3] = biological target: T1, Interleukin-1 beta; remark: listed apart in the source
Description: Antagonist activity at human IL-1 beta assessed as inhibition of interaction of IL-1beta/IL-1R1 expressed in HEK293-Blue cells by measuring reduction in SEAP activity preincubated with IL-1 beta for 1 hr followed by incubation with cells and measured after overnight by reporter gene assay

[4] = biological target: T2, Interleukin-1 alpha (Homo sapiens, UniProt P01583)
T2 sequence (P01583 whole entry): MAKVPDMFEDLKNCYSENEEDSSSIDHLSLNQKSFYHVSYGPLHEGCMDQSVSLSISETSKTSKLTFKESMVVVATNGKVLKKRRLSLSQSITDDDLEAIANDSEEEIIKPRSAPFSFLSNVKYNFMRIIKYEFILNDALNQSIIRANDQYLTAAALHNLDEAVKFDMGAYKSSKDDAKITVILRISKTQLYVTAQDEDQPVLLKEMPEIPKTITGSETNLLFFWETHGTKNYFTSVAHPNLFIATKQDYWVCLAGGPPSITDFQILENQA
Description: Antagonist activity at human recombinant His-tagged wild type IL-1 alpha assessed as inhibition of IL-1 alpha/Alexa 647 labeled human IL-1R1 (1 to 332) interaction preincubated with IL-1 alpha for 1 hr followed by IL-1R1 addition and measured after 1 hr by TR-FRET assay

[5] = biological target: T1, Interleukin-1 beta; remark: listed apart in the source
Description: Antagonist activity at human recombinant His-tagged wild type IL-1 beta assessed as inhibition of IL-1 beta/Alexa 647 labeled human IL-1R1 (1 to 332) interaction preincubated with IL-1 beta for 1 hr followed by IL-1R1 addition and measured after 1 hr by TR-FRET assay

T1 sequence (P01584 117-269 limits assumed): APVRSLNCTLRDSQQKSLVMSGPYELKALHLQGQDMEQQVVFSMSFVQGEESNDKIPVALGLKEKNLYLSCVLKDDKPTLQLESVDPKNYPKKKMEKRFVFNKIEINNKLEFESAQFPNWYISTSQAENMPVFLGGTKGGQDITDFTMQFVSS

Compound | Ki [1] | IC50 [4] | IC50 [5] | other results
Cc1ccc2c(c1)NC(=O)[C@@]2(c1cn[nH]c1)c1cc(-c2ccc(C(=O)O)cc2C(=O)O)ccc1O | < 10 µM | – | – | IC50 [2]: 7.9 µM; IC50 [3]: 5.3 µM
CC(C)c1cc(-c2cc(C(=O)O)cn3cc(C(=O)N4CCN(S(=O)(=O)c5ccccc5)CC[C@H]4C(=O)NCCN4CCOCC4)nc23)ccc1C=O | – | 99 µM | 8.3 µM | –
CC(C)c1cccc(-c2cc(C(=O)O)cn3cc(C(=O)N4CCN(S(=O)(=O)c5ccccc5)CCC4C(=O)NCCN4CCOCC4)nc23)c1 (configuration not stated) | – | – | > 200 µM | –
O=Cc1ccc(-c2cc(C(=O)O)cn3cc(C(=O)N4CCN(S(=O)(=O)c5ccccc5)CC[C@H]4C(=O)NCCN4CCOCC4)nc23)cc1C(F)(F)F | – | > 200 µM | 1.2 µM | –
CC(C)c1cc(-c2cc(C(=O)O)cn3cc(C(=O)N4CCCN(S(=O)(=O)c5ccccc5)CC4)nc23)ccc1C=O | – | > 200 µM | > 200 µM | –
CC(C)c1cc(-c2cc(C(=O)O)cn3cc(C(=O)N4CCN(S(=O)(=O)c5ccccc5)CC[C@@H]4C(=O)NCCN4CCOCC4)nc23)ccc1C=O | – | > 200 µM | 78.4 µM | –
Cc1cc(O)c(C(c2cc(C3CC(C(=O)O)C3)ccc2O)c2c[nH]nc2C(=O)O)cc1C (racemic) | 43 µM | – | – | –
OC(c1ccc(OC(F)F)cc1)(c1cccc(Br)c1)c1cc[nH]n1 (racemic) | > 1000 µM | – | – | –
CC(C)c1cc(-c2cc(C(=O)O)cn3cc(C(=O)N4CCN(S(=O)(=O)c5ccccc5)CCC4C(=O)NCCN4CCOCC4)nc23)ccc1C=O (racemic) | – | – | 11 µM | –
NCCCC[C@H](NC(=O)CNC(=O)[C@@H]1CSCC(=O)N[C@@H](Cc2ccccc2)C(=O)N[C@@H](Cc2c[nH]c3ccccc23)C(=O)N[C@@H](CC(=O)O)C(=O)N[C@@H](CO)C(=O)N[C@@H](Cc2c[nH]c3ccccc23)C(=O)NCC(=O)N[C@@H](Cc2ccc(O)cc2)C(=O)N[C@@H](Cc2c[nH]c3ccccc23)C(=O)N[C@@H](Cc2ccc(O)cc2)C(=O)NCC(=O)N2CCC[C@H]2C(=O)N[C@@H](Cc2c[nH]c3ccccc23)C(=O)N[C@@H](CC(=O)O)C(=O)N1)C(N)=O ({CH2CO}-FWDSWGYWYGPWDCGK-NH2; thioether N-14) | – | > 200 µM | 14 µM | –
